Series [1] is described as follows: in vitro intrinsic clearance. In kind it is in vitro ADME. To be noted: metabolic stability, details in SI.
Series [2] has as its system CFTR, cystic fibrosis transmembrane conductance regulator. Nature of the series: CFTR rescue activity. It counts as cell-based. Conditions: result given in words only; RC50 value is in Fig. 4b, which could not be read.
Series [3] can be described thus: solubility at different pH values. In kind it is physicochemical. Conditions: at all measured pH values.

SMILES strings stand for the structures.

For the compound `Cc1ccc(NC(=O)C2(c3ccc4c(c3)OC(F)(F)O4)CC2)nc1-c1cccc(C(=O)O)c1` [compound 57, reference compound], in series [1], the “in vitro intrinsic clearance (CLint)” value amounted to 11.96 μL/min/10^6 cells.
As for `Cc1ccc(NC(=O)C2(c3ccc4c(c3)OC(F)(F)O4)CC2)nc1C12C3C4C5C3C1C5(C(=O)O)C42` (stereo not drawn) [compound 56, Cuba-Lumacaftor], the “in vitro intrinsic clearance (CLint)” value is < 7 μL/min/10^6 cells in series [1] and 6.98 μL/min/10^6 cells in series [1] (listed as Cuba-Lumacaftor). Also, the “activity (half-maximal rescue concentration, RC50)” value in series [2] is recorded as “high activity”. In addition, in series [3], the “solubility compared to the parent benzene-containing drug” value was “improved solubility”.
As to `CCN(CC)CCNC(=O)C12C3C4C1C1C2C3C41NC(C)=O` (stereo not drawn) [compound 58, Cuba-Acecainide], the “in vitro intrinsic clearance (CLint)” value in series [1] is recorded as < 7 μL/min/10^6 cells.

For the origin of these results see article PMC10680098 (Nature, 2023).
